Source: patent US7563801B2, “Pharmaceutical formulations: salts of 8-[{1-(3,5-Bis-(trifluoromethyl)phenyl)-ethoxy}-methyl]-8-phenyl-1,7-diaza-spiro[4.5]decan-2-one and treatment methods using the same” (Schering Corporation, priority 2006, dated 2009)

What was measured:
[1] = Single dose rising study of the encapsulated formulation in healthy human volunteers, pharmacokinetics; assay type: in vivo; settings: for AUC / Cmax / Tmax / half-life: plasma, oral capsule; for AUC: 0 to 72 hours post administration, read-out: AUC (area under the plasma concentration time curve); for Cmax: read-out: Cmax (mean maximum plasma concentration); for Tmax: read-out: Tmax (median time of maximum plasma concentration); for half-life: read-out: Half Life T ½ (converted)
Experimental: Another aspect of the present invention is the provision of a pharmaceutical formulation comprising a hydrochloride monohydrate salt of Formula II in a capsule oral dosage form which has a Pharmacokinetic (PK) profile obtained under single dose rising rate study conditions in accordance with Table VIII (average of eight study subjects).
Blood samples were collected from each volunteer at predose (hour 0) and 0.25, 0.5, 0.75, 1, 1.5, 2, 3, 4, 6, 8, 12, 16, 24, 36, 48, and 72 hours. The serum drug levels of the volunteers receiving active drug are present graphically in FIG. 2.

[2] = Second study: 10, 25 or 50 mg per day for 10 days in healthy volunteers, pharmacokinetics on days 1 and 10; assay type: in vivo, human; settings: for Cmax / AUC / Tmax / half-life: plasma, oral; for Cmax: read-out: Cmax (mean maximum plasma concentration); for AUC: footnote: 0 to 72 hours post administration, read-out: AUC (area under the plasma concentration time curve); for Tmax: read-out: Tmax (median time of maximum plasma concentration); for half-life: read-out: Half Life T ½ (converted)
Experimental: In a second study, three cohorts of 8 healthy volunteers each were administered 10, 25, or 50 mg per day for each of 10 days. Administration in every case followed a 10 hour fast. Blood samples were collected from each volunteer at predose (hour 0) and 0.25, 0.5, 0.75, 1, 1.5, 2, 3, 4, 6, 8, 12, 16, 24, 36, 48, and 72 hours on each of days 1 and 10.

[3] = human, 10 mg per day, human, 10 mg per day, Day 1
[4] = human, 10 mg per day, human, 10 mg per day, Day 10
[5] = human, 25 mg per day, human, 25 mg per day, Day 1
[6] = human, 25 mg per day, human, 25 mg per day, Day 10
[7] = human, 50 mg per day, human, 50 mg per day, Day 1
[8] = human, 50 mg per day, human, 50 mg per day, Day 10

AUC ([1]; single dose 5 mg): 931 ng·h/mL | Cmax ([1]; single dose 5 mg): 27.3 ng/mL | Tmax ([1]; single dose 5 mg): 2 h | AUC ([1]; single dose 10 mg): 1820 ng·h/mL | Cmax ([1]; single dose 10 mg): 52.7 ng/mL | Tmax ([1]; single dose 10 mg): 2.5 h | AUC ([1]; single dose 25 mg): 17200 ng·h/mL | Cmax ([1]; single dose 25 mg): 119 ng/mL | half-life ([1]; single dose 25 mg): 183 h | Tmax ([1]; single dose 25 mg): 2.5 h | AUC ([1]; single dose 50 mg): 33600 ng·h/mL | Cmax ([1]; single dose 50 mg): 276 ng/mL | half-life ([1]; single dose 50 mg): 171 h | Tmax ([1]; single dose 50 mg): 3 h | AUC ([1]; single dose 100 mg): 74400 ng·h/mL | Cmax ([1]; single dose 100 mg): 475 ng/mL | half-life ([1]; single dose 100 mg): 181 h | Tmax ([1]; single dose 100 mg): 2 h | AUC ([1]; single dose 200 mg): 148000 ng·h/mL | Cmax ([1]; single dose 200 mg): 944 ng/mL | half-life ([1]; single dose 200 mg): 169 h | Tmax ([1]; single dose 200 mg): 4 h | Absorption ([1]; single oral doses 5 to 200 mg): rapidly absorbed | Absorption ([2]; human, 10, 25 or 50 mg per day for 10 days): rapidly absorbed | Accumulation relative to the single dose ([2]; human, daily dosing for 10 days): approximately 5 fold | Cmax ([2]; human, 10 mg per day, human, 10 mg per day, Day 1, after 10 hour fast): 48.6 ng/mL | AUC [2, 3]: 673 ng·h/mL | Tmax [2, 3]: 3 h | Cmax ([2]; human, 10 mg per day, human, 10 mg per day, Day 10, after 10 hour fast): 180 ng/mL | AUC [2, 4]: 3590 ng·h/mL | Tmax [2, 4]: 3 h | Cmax ([2]; human, 25 mg per day, human, 25 mg per day, Day 1, after 10 hour fast): 139 ng/mL | AUC [2, 5]: 1950 ng·h/mL | Tmax [2, 5]: 2 h | Cmax ([2]; human, 25 mg per day, human, 25 mg per day, Day 10, after 10 hour fast): 491 ng/mL | AUC [2, 6]: 9720 ng·h/mL | Tmax [2, 6]: 2 h | Cmax ([2]; human, 50 mg per day, human, 50 mg per day, Day 1, after 10 hour fast): 254 ng/mL | AUC [2, 7]: 3400 ng·h/mL | Tmax [2, 7]: 3 h | Cmax ([2]; human, 50 mg per day, human, 50 mg per day, Day 10, after 10 hour fast): 895 ng/mL | AUC [2, 8]: 17700 ng·h/mL | Tmax [2, 8]: 2.5 h | half-life ([2]; human, 10 mg per day, Day 10): 238 h | half-life ([2]; human, 50 mg per day, Day 10): 172 h
Structure (SMILES): C[C@@H](OC[C@@]1(c2ccccc2)CC[C@]2(CCC(=O)N2)CN1)c1cc(C(F)(F)F)cc(C(F)(F)F)c1 [(5S,8S)-8-[{(1R)-1-(3,5-Bis-(trifluoromethyl)phenyl]-ethoxy}-methyl]-8-phenyl-1,7-diazaspiro[4,5]decan-2-one]
